# Data taken from paper PMC11597879, “In Silico and In Vitro Investigation of Cytotoxicity and Apoptosis of Acridine/Sulfonamide Hybrids Targeting Topoisomerases I and II” (Pharmaceuticals, 2024).
# Legend:
# MCF-7 cells = tested on: MCF-7 cells; parameters: method as in earlier work; settings: MTT, 48 h exposure; cited from earlier work
# HCT-116 cells = tested on: HCT-116 cells; parameters: method as in earlier work; settings: MTT, 48 h exposure; cited from earlier work
# human Topo-II = target: T1, human Topo-II (Homo sapiens, UniProt P11388); experiment: Topoisomerase II inhibitory assay (supercoiled pHot1 DNA, gel electrophoresis); type: biochemical; settings: 37 °C 30 min
# T1 construct: purchased TopoGEN TG1009
# From the text: (§1) Subsequently, these compounds were employed to evaluate their capacity to inhibit topoisomerase activity at the established IC50, using supercoiled DNA as a substrate. The resulting DNA products were separated via 1% gel electrophoresis and stained with ethidium bromide. […] To evaluate the catalytic activity of Topo-I, supercoiled DNA served as the substrate. Commercial samples of Topo I and supercoiled DNA were provided by […], TopoGEN, Inc. (Columbus, OH, USA).
# To assess the Topo-II activity, a typical enzyme reaction was set up using human Topo-II, supercoiled pHot1 DNA as the substrate, the test drug, and the assay buffer. […] Following that, the DNA was stained and ran on a 1% agarose gel for one to two hours using a Bio-Rad gel electrophoresis apparatus. Both supercoiled and linear DNA strands were included in the gel to serve as indicators for DNA-Topo-II intercalation.
# HepG2 cells [1] = tested on: HepG2 cells; parameters: method as in earlier work; settings: MTT, 48 h exposure; read-out: IC50 HepG-2; cited from earlier work
# Topo-I = target: T2, Topo-I (Homo sapiens, UniProt P11387); experiment: Topoisomerase I inhibitory assay (supercoiled DNA, gel electrophoresis); type: biochemical; settings: supercoiled DNA substrate, 37 °C 30 min
# T2 construct: purchased TopoGEN, Inc. (Columbus, OH, USA) TG1018-1A
# T2 sequence (P11387 1-765): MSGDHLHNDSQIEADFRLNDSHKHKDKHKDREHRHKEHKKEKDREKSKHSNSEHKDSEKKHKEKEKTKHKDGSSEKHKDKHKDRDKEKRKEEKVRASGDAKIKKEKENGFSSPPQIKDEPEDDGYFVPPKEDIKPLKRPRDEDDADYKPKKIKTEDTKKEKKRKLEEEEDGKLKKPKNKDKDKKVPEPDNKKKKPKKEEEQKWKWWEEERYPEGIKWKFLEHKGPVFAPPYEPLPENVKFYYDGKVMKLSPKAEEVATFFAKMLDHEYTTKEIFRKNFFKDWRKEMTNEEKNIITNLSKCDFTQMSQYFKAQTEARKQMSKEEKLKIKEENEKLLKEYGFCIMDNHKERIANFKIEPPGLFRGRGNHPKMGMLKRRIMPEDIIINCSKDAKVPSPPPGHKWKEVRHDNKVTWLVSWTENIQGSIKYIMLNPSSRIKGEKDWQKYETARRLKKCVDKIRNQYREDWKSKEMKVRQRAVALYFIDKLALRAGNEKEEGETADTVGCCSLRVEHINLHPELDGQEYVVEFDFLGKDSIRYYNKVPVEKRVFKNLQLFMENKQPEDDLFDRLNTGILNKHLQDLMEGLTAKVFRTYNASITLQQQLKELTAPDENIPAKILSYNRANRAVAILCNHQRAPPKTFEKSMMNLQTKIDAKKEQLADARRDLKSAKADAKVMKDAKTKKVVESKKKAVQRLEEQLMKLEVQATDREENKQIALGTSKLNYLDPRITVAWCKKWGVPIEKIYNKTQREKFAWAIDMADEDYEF
# From the text: as §1
# To visualize the cleavage products after incubation, we used 1% agarose gel electrophoresis to separate the samples.
# HepG2 cells [2] = experiment: Cell cycle analysis (PI, flow cytometry); settings: HepG2, 24 h treatment, DNA content percentage
# Method: Subsequently, the cells were harvested, fixed in 70% ethanol, and incubated for 12 h at 4 °C. After fixation, the cells were centrifuged, and the cell pellets were washed and resuspended in 0.5 mL of cold phosphate-buffered saline (PBS). The cells were then stained with 5 μg/mL of propidium iodide (PI; Sigma, Panama City, Panama), and the DNA content was determined using a BD FACSCalibur flow cytometer (Becton Dickinson, Franklin Lakes, NJ, USA). Data analysis was performed using CellQuest software, and 10,000 events were analyzed for each sample.
# THLE-2 cell line = experiment: MTT cytotoxicity against normal cell line THLE-2; type: cell-based, human; settings: normal liver epithelial cells
# Method: These cells were cultured in Dulbecco’s Modified Eagle’s Medium (DMEM) from Invitrogen/Life Technologies, supplemented with 10% Hyclone fetal bovine serum, […], and 1% penicillin and streptomycin. For experimental purposes, the cells were seeded in 96-well tissue culture plates at an approximate density of 5 × 10^3 cells per well and were allowed to incubate overnight. The following day, the culture medium was replaced with fresh medium containing varying concentrations of the synthesized compounds to be tested for their toxicity. After 48 h of exposure, the medium was removed, and the cells were washed twice with phosphate-buffered saline (PBS). A new medium containing MTT solution was added, and the cells were further incubated for 4 h. The cellular viability and toxicity in response to each compound were determined using ELISA microplate reader- Bioline by measuring the absorbance at a wavelength of 450 nm.
# HepG2 cells [3] = experiment: Annexin V-FITC/PI apoptosis assay; type: cell-based, human; settings: for apoptosis as extent of the level observed with SAHA / necrosis as extent of the level observed with SAHA: HepG2, relative to SAHA positive control; for cells in early apoptotic stage: lower right quadrant; for cells in late apoptotic stage: upper right quadrant
# Method: An Annexin V-FITC assay was utilized to detect apoptosis in HepG2 cells. The cells were exposed to compounds 8b (3.4 µM) and 7c (7.3 µM) for 24 h, with untreated cells and cells treated with SAHA serving as negative and positive controls, respectively. After staining with propidium iodide (PI) and Annexin V-FITC, cell apoptosis was assessed via flow cytometry.
# [4] = HepG2, 8b 3.4 µM, 7c 7.3 µM, 24 h (Figure 2 legend: 72 h)
# T1 sequence (P11388 whole entry): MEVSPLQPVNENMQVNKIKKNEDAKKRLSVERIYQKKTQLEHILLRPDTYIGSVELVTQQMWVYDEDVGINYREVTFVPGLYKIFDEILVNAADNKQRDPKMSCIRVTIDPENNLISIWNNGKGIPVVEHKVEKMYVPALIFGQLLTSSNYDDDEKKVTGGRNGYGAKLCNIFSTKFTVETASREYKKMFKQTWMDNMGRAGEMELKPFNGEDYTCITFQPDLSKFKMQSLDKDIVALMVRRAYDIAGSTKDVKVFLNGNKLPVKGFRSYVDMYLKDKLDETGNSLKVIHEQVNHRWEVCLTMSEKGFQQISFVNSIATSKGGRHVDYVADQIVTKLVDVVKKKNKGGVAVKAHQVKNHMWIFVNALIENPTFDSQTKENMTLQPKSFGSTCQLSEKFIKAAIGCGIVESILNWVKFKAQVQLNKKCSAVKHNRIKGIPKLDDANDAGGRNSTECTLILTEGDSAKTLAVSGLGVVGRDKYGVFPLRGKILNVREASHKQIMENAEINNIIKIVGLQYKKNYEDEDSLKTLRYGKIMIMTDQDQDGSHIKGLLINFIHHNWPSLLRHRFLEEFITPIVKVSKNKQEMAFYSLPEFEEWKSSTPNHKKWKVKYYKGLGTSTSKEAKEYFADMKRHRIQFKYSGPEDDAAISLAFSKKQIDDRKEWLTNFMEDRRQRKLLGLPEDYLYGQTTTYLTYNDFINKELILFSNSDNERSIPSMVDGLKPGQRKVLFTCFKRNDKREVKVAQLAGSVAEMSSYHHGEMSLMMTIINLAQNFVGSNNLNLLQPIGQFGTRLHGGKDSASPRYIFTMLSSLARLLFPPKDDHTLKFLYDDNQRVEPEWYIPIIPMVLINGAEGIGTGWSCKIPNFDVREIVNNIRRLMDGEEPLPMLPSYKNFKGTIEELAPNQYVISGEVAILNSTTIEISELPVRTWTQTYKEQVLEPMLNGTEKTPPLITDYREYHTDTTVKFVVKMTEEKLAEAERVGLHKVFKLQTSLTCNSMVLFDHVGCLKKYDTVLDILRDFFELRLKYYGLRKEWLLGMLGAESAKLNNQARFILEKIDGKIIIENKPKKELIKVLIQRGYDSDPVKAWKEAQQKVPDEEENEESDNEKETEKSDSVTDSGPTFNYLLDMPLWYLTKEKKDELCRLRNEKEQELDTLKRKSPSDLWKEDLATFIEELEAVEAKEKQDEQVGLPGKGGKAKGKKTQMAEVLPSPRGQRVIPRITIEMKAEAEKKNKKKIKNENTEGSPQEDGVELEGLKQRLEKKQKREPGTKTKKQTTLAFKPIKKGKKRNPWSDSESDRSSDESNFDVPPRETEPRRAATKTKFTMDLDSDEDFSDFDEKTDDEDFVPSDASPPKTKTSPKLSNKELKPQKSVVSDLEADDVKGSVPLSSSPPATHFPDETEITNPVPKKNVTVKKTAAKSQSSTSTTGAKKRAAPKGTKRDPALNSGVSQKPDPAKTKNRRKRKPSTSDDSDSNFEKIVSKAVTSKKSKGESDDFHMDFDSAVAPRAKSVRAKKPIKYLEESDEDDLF
SMILES,IC50 (human Topo-II),IC50 (Topo-I),IC50 (MCF-7 cells),IC50 (HCT-116 cells),IC50 (HepG2 cells [1]),also measured
"COc1cccc2c1C(=O)c1c(O)c3c(c(O)c1C2=O)C[C@@](O)(C(=O)CO)C[C@@H]3O[C@H]1C[C@H](N)[C@H](O)[C@H](C)O1 [Doxorubicin, reference compound]",,,,,4.5 ± 0.2 µM,
"N.N.[Cl][Pt][Cl] [Cisplatin, reference compound]",11.3 ± 0.62 µM,5.71 ± 0.31 µM,,,,
Nc1ccc(Nc2c3ccccc3nc3ccccc23)cc1 [Compound 5b],,,5.88 ± 0.4 µM,8.93 ± 0.8 µM,8.3 ± 0.7 µM,
S=C(Nc1ccccc1)Nc1ccc(Cc2ccc(Nc3c4ccccc4nc4ccccc34)cc2)cc1 [Compound 6a],101 ± 5.51 µM,27.6 ± 1.5 µM,40.9 ± 3.8 µM,47.2 ± 3.9 µM,36.7 ± 3.5 µM,
S=C(Nc1ccccc1)Nc1ccc(Nc2c3ccccc3nc3ccccc23)cc1 [Compound 6b],24.5 ± 1.34 µM,4.17 ± 0.23 µM,16.5 ± 1.5 µM,13.1 ± 1.2 µM,18 ± 1.7 µM,
"O=C(CCCCCCC(=O)Nc1ccccc1)NO [SAHA, reference compound]",,,,,,%G2/M (HepG2 cells [2]): 6.59%; %Pre-G1 (HepG2 cells [2]): 34.12%; %S (HepG2 cells [2]): 46.39%; G0–G1 (HepG2 cells [2]): 47.02%; IC50 (THLE-2 cell line; 48 h): 33.6 ± 1.89 µM

# Second part, led by results:
IC50 (human Topo-II),IC50 (Topo-I),SMILES,IC50 (MCF-7 cells),IC50 (HCT-116 cells),IC50 (HepG2 cells [1]),also measured
22 ± 1.2 µM,21.4 ± 1.17 µM,O=S(=O)(Nc1ccc(Nc2c3ccccc3nc3ccccc23)cc1)c1ccc(N=Nc2ccccc2)cc1 [Compound 8c],25.5 ± 2.4 µM,35.7 ± 3.4 µM,22.4 ± 2 µM,
10.9 ± 0.59 µM,15 ± 0.81 µM,O=[N+]([O-])c1ccccc1S(=O)(=O)Nc1ccc(Nc2c3ccccc3nc3ccccc23)cc1 [Compound 8a],10.5 ± 1 µM,15.2 ± 1.6 µM,20.6 ± 1.8 µM,
16.2 ± 0.88 µM,3.41 ± 0.19 µM,Cc1ccc(S(=O)(=O)Nc2ccc(Nc3c4ccccc4nc4ccccc34)cc2)cc1 [Compound 8b],8.83 ± 0.9 µM,9.39 ± 0.9 µM,14.5 ± 1.4 µM,"%G2/M (HepG2 cells [2]): 9.66%; %Pre-G1 (HepG2 cells [2]): 26.95%; %S (HepG2 cells [2]): 39.15%; G0–G1 (HepG2 cells [2]): 51.19%; IC50 (THLE-2 cell line; Homo sapiens, THLE-2, 48 h): 104 µM; IC50 (THLE-2 cell line; 48 h): 55.5 ± 3.13 µM; apoptosis as extent of the level observed with SAHA (HepG2 cells [3]): 79%; necrosis as extent of the level observed with SAHA (HepG2 cells [3]): 46%; cells in early apoptotic stage (HepG2 cells [3]; [4]): 3.5%; cells in late apoptotic stage (HepG2 cells [3]; [4]): 19.6%"
234 ± 12.7 µM,82.5 ± 4.49 µM,Cc1ccc(S(=O)(=O)Nc2ccc(Cc3ccc(Nc4c5ccccc5nc5ccccc45)cc3)cc2)cc1 [Compound 7b],73.8 ± 4.5 µM,88.5 ± 4.8 µM,93.6 ± 5.3 µM,melting point: > 250 °C
38.7 ± 2.1 µM,42.2 ± 2.29 µM,CC(C)c1cc(C(C)C)c(S(=O)(=O)Nc2ccc(Cc3ccc(Nc4c5ccccc5nc5ccccc45)cc3)cc2)c(C(C)C)c1 [Compound 7e],50.8 ± 4 µM,66.7 ± 4.5 µM,55.4 ± 4.2 µM,
7.33 ± 0.4 µM,16.6 ± 0.9 µM,CC(=O)Nc1ccc(S(=O)(=O)Nc2ccc(Cc3ccc(Nc4c5ccccc5nc5ccccc45)cc3)cc2)cc1 [Compound 7c],29.1 ± 2.7 µM,40.6 ± 3.7 µM,31.1 ± 3.1 µM,"%G2/M (HepG2 cells [2]): 28.12%; %Pre-G1 (HepG2 cells [2]): 19.61%; %S (HepG2 cells [2]): 29.27%; G0–G1 (HepG2 cells [2]): 42.61%; IC50 (THLE-2 cell line; Homo sapiens, THLE-2, 48 h): 55.5 µM; IC50 (THLE-2 cell line; 48 h): 104 ± 5.86 µM; apoptosis as extent of the level observed with SAHA (HepG2 cells [3]): 55%; necrosis as extent of the level observed with SAHA (HepG2 cells [3]): 88%; cells in early apoptotic stage (HepG2 cells [3]; [4]): 1.6%; cells in necrotic stage (HepG2 cells [3]; HepG2, 8b 3.4 µM, 7c 7.3 µM, 24 h (Figure 2 legend: 72 h), upper left quadrant): 5.9%; cells in late apoptotic stage (HepG2 cells [3]; [4]): 12%"
21.6 ± 1.18 µM,7.67 ± 0.42 µM,O=S(=O)(Nc1ccc(Cc2ccc(Nc3c4ccccc4nc4ccccc34)cc2)cc1)c1ccc(N=Nc2ccccc2)cc1 [Compound 7d],33.6 ± 3.3 µM,58 ± 4.3 µM,45.5 ± 3.9 µM,
8.07 ± 0.44 µM,18.4 ± 1 µM,O=[N+]([O-])c1ccccc1S(=O)(=O)Nc1ccc(Cc2ccc(Nc3c4ccccc4nc4ccccc34)cc2)cc1 [Compound 7a],88.4 ± 5.1 µM,72.2 ± 4.7 µM,62.3 ± 4.4 µM,melting point: 172 °C
32.7 ± 1.78 µM,11.9 ± 0.65 µM,CC(C)c1cc(C(C)C)c(S(=O)(=O)Nc2ccc(Nc3c4ccccc4nc4ccccc34)cc2)c(C(C)C)c1 [Compound 8d],19.7 ± 1.7 µM,29.9 ± 2.8 µM,23.1 ± 2.2 µM,
